US5089623A, “Certain imidate insecticides” (Imperial Chemical Industries Plc, priority 1990, dated 1992)

Assays:
Format in all cases: in vivo
[1] = tested on: Housefly [Musca domestica]; assay: Housefly insecticidal test (HF); details: per 25 female houseflies, 48 hours
[2] = tested on: Tobacco Budworm [Heliothis virescens (Fabricius)] eggs; assay: Tobacco budworm egg test (TBW-E); details: percent in solution
[3] = tested on: Cabbage Looper [Trichoplusia ni (Hubner)]; assay: Cabbage looper test (CL); details: second-instar larvae, 3-5 days, percent in solution
[4] = tested on: Maize weevil [Sitophilus Zeamais (Motschulsky)]; assay: Maize weevil test (MW); details: adult weevils, treated corn seeds, 48 hours, percent in solution
How it was run: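 Adult weevils (10) were placed with four corn seeds that had been dipped 2-3 s in compound dissolved in 50:50 acetone:water, then dried, and held at about 25° C. Mortality was scored at 48 h. LC50 was taken from dosage-mortality curves and expressed as percent compound in solution, from a 0.01% top concentration.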

[5] = tested on: Black Bean Aphid [Aphis fabae (Scop.)]; assay: Black bean aphid test (BBA); details: percent of test compound in sprayed solution, 48 hours
Procedure: (§1) The compounds in Tables 1 and 2 above were tested for insecticidal activity using the following testing procedures. LC50 values, based on the results of these tests and calculated according to dosage-mortality curves, are expressed in Table 3.
Black Bean Aphid [Aphis fabae (Scop.)]
Nasturtium plants (Tropaeolum sp.) approximately 5 cm tall, were transplanted into sandy loam soil in small cups and infested with 25-50 black bean aphids of mixed ages. Twenty-four hours later they were sprayed to the point of runoff with 50-50 acetone-water solutions of the test compounds. Treated plants were held in the greenhouse and mortality was recorded after 48 hours. Test concentrations ranged from 0.05% downward. The LC-50 value is expressed below in Table 3 under the heading "BBA" in terms of percent of the test compound in the sprayed solution.

[6] = tested on: Aster Leafhopper [Macrosteles fascifrens (Stal)]; assay: Aster leafhopper test (LH); details: adults/nymphs, 48 hours, percent in solution
[7] = tested on: Beet Armyworm (Spodoptera exigua); assay: Beet armyworm test (BAW); details: second-instar larvae, five days, percent in solution
How it was run: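 Sugar beet leaves were dipped 2-3 s in compound diluted in 50-50 acetone-water, dried, then infested with five second-instar larvae in humid dishes. Mortality was scored after five days at concentrations from 0.1% downward. LC50 was taken from dosage-mortality curves as percent compound in solution.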

[8] = tested on: Rice water weevil [Lissorhoptrus oryzophilus (Kuschel)]; assay: Rice water weevil test (RWW); details: per weevil, topical, female adults, 48 hours
Procedure: as §1
Rice water weevil [Lissorhoptrus oryzophilus (Kuschel)]
Test compounds were diluted in acetone. Droplets (1 ul) of test solutions were applied to the ventral abdomens of ten female adult weevils. The treated weevils were placed in containers with wet cotton balls and rice foliage. The containers were covered and kept at a temperature of about 25° C. Mortality was recorded after 48 hours. […] The LC50 values are expressed below in Table 3 under the heading "RWW" in terms of μg of test compound per weevil.

[9] = tested on: Tobacco Budworm [Heliothis virescens (Fabricius)]; assay: Tobacco budworm contact test (TBW-C); details: second-instar larvae, 5 days, percent in solution
How it was run: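 Cotton cotyledons dipped 2–3 s in compound in 50:50 acetone–water, dried, then infested with 5 second-instar larvae and held 5 days at high humidity before scoring mortality.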

SMILES	LC50 HF [1] [µg]	LC50 TBW E [2] [%]	LC50 CL [3] [%]	LC50 MW [4] [%]	LC50 BBA [5] [%]	LC50 LH [6] [%]	LC50 BAW [7] [%]	LC50 RWW [8] [µg]	LC50 TBW C [9] [%]
C=CCOc1cccc(COC(=Nc2ccc(F)c(Cl)c2)C(C)C)c1 [Compound 479]	66	> 0.1	0.013	> 0.01	> 0.05	> 0.05			
CC(C)C(=Nc1ccc(F)c(F)c1F)OCc1ccc(F)c(Oc2ccc(F)cc2)c1 [Compound 349]	4.9	> 0.1	0.00007	> 0.01	> 0.05		> 0.1	> 2.5	0.0004
CC(C)C(=Nc1ccc(F)c(Br)c1)OCc1ccc(F)c(Oc2ccc(F)cc2)c1 [Compound 273]	7	0.015	0.000018	0.004		0.0003	0.0017	> 2.5	0.00025
CC(C)C(=Nc1ccc(F)c(Cl)c1F)OCc1cccc(Oc2ccc(F)cc2)c1 [Compound 352]	4.6	> 0.1	0.000065	0.0075		0.0004	> 0.1	> 2.5	0.0004
CC(C)C(=Nc1ccc(F)c(F)c1)OCc1ccc(F)c(Oc2ccc(F)cc2)c1 [Compound 278]	3	0.008	0.00002	0.0063		0.0003	0.0012	0.085	0.00026
CC(C)C(=Nc1ccc(F)c(Cl)c1)OCc1ccc(F)c(Oc2ccccc2)c1 [Compound 82]	2.5	0.006	0.00018		0.00021	0.0001	0.0025	0.086	0.0008
CC(C)C(=Nc1ccc(OC(F)(F)F)cc1)OCc1ccc(F)c(Oc2ccc(F)cc2)c1 [Compound 286]	34	0.005	0.000024	0.0039		0.0006	0.0004	0.09	0.00017
CC(C)C(=Nc1ccc(F)c(Cl)c1)OCc1cccc(Cc2ccccc2)c1 [Compound 537]	20		> 0.1	> 0.01	> 0.05	> 0.05			
CC(C)C(=Nc1ccc(F)c(Cl)c1)OCc1cccc(Oc2ccccc2)c1 [Compound 81]	4	0.007	0.0006	0.005		0.0003	0.003	> 0.5	0.0009
C=CCOc1cccc(COC(=Nc2cccc(C(F)(F)F)c2)C(C)C)c1 [Compound 480]	> 100	> 0.1	0.01		> 0.05				
CC(C)C(=Nc1ccc(Cl)cc1)OCc1cccc(Oc2ccc(Cl)cc2)c1 [Compound 269]	25	0.04	0.0003	> 0.01		0.003	0.0024	> 2.5	0.001
CC(C)C(=Nc1ccc(C(F)(F)F)cc1)OCc1cccc(Cc2ccccc2)c1 [Compound 535]	41		> 0.1	> 0.01	> 0.05	> 0.05			
CC(C)C(=Nc1ccc(F)c(C(F)(F)F)c1)OCc1ccc(F)c(Oc2ccc(F)cc2)c1 [Compound 277]	4	0.013	0.00001	> 0.01		0.0003	0.005	0.065	0.0005
CC(C)C(=Nc1ccc(F)c(Cl)c1)OCc1ccc(F)c(Oc2ccc(F)cc2)c1 [Compound 216]	2	0.005	0.000007	0.0017		0.00025	0.0007	0.067	0.00018
CC(C)C(=Nc1ccc(F)c(Cl)c1)OCc1cccc(Oc2ccc(F)cc2)c1 [Compound 89]	5	0.04	0.00003	0.005		0.001	0.009	> 2.5	0.0005
CC(C)C(=Nc1ccc2c(c1)OCO2)OCc1cccc(Oc2ccccc2)c1 [Compound 180]	2	0.03	0.0004	0.008		0.0015	0.005	> 2.5	0.003
CC(C)C(=Nc1ccc(F)c(Cl)c1)OCc1ccc(F)c(Oc2ccc(Cl)cc2)c1 [Compound 267]	8.4	0.015	0.00008	0.0027		0.002	0.0012	0.11	0.0003
